Legend:
influenza virus [1] = assay type: in vivo, human; details: 20 to younger than 65 years old, Compound II-6 single 40 or 80 mg, Oseltamivir 75 mg twice a day for 5 days
[2] = for Adverse events the causal relationship of which cannot be denied, number of episodes: Compound II-6 610 patients, Oseltamivir 513 patients; for Adverse events the causal relationship of which cannot be denied, proportion of patients: Compound II-6 single 40 or 80 mg, Oseltamivir 75 mg twice a day for 5 days
Excerpt: The number of side-effect episodes and the number of patients with side effect were counted for each administration group.

influenza virus [3] = assay: Clinical test: randomized, placebo-controlled, double-blind study, time to alleviation of influenza symptoms (10, 20, 40 mg); assay type: in vivo, human
[4] = single oral 20 mg, Cox proportional hazard model relative to placebo
[5] = single oral 40 mg, baseline symptom moderate or severe

SMILES	time to termination of viral shedding based on virus titer (influenza virus [1]) [h]	Adverse events the causal relationship of which cannot be denied, number of episodes [2] [episodes]	Adverse events the causal relationship of which cannot be denied, proportion of patients [2] [%]	Time until muscular or joint pain symptom is alleviated, Hazard ratio (influenza virus [3]; single oral 10 mg, Cox proportional hazard model relative to placebo)	Time to alleviation of influenza symptoms, Hazard ratio (influenza virus [3]; [4])	Time until nasal congestion symptom is alleviated, Hazard ratio (influenza virus [3]; [4])	median time until muscular or joint pain was improved, shorter in the 40 mg administered group than the placebo group (influenza virus [3]; single oral 40 mg) [h]	median time until nasal congestion was improved, shorter in the 40 mg administered group than the placebo group (influenza virus [3]; single oral 40 mg) [h]	Time until feverishness or chills symptom is alleviated, Hazard ratio (influenza virus [3]; single oral 40 mg, Cox proportional hazard model relative to placebo)	Time until muscular or joint pain symptom is alleviated, Difference from placebo (influenza virus [3]; [5]) [h]	Time until nasal congestion symptom is alleviated, Difference from placebo (influenza virus [3]; [5]) [h]	Amount of change in virus titer from baseline, Mean (influenza virus [1]; Day 5)	Severe adverse events the causal relationship of which cannot be denied ([2]; human, in vivo)
CCOC(=O)C1=C[C@@H](OC(CC)CC)[C@H](NC(C)=O)[C@@H](N)C1 [Oseltamivir, reference compound]	72.0	53	8.4										
COC(=O)OCOc1c2n(ccc1=O)N([C@@H]1c3ccccc3SCc3c1ccc(F)c3F)[C@@H]1COCCN1C2=O [Compound II-6]	24.0	37	4.4	0.77	0.81	0.59	16.4	21.0	0.71	-16.4	-21	−4.95 log10 [TCID50/mL]	not reported
